ChEMBL document CHEMBL1201862, “PubChem BioAssay data set” (2004)
Calls of active or inactive are those of the source.

Columns and labels:
[1] = biological target: T1, Corticotropin-releasing factor receptor 2/Corticotropin-releasing factor-binding protein (Homo sapiens, UniProt P24387+Q13324); assay: Dose Response confirmation of uHTS hits for small molecule antagonists of the CRF-binding protein and CRF-R2 receptor complex.; format: functional; conditions: read-out: IC50_Mean
T1 sequence (Q13324 whole entry): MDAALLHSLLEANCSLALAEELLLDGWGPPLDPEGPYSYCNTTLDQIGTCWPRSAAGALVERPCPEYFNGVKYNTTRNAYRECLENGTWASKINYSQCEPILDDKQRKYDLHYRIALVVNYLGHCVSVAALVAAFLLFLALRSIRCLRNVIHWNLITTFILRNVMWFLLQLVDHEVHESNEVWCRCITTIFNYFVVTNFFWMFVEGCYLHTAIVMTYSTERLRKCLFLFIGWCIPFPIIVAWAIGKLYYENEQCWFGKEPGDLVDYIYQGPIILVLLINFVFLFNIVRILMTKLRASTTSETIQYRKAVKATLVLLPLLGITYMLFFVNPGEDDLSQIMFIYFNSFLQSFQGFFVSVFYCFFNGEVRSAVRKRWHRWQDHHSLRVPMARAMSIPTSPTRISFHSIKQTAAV
T1 sequence (P24387 whole entry): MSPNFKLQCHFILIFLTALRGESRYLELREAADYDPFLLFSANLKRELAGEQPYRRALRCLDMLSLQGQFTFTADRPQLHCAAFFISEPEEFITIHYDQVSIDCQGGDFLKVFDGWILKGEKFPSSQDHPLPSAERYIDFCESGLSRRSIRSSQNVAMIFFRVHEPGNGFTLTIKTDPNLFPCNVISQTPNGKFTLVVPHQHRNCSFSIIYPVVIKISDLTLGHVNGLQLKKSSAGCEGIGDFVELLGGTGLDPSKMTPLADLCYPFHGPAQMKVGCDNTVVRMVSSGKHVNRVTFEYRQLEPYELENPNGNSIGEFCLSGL

[2] = biological target: T1, Corticotropin-releasing factor receptor 2/Corticotropin-releasing factor-binding protein; assay: activators of CRF receptor 2 with binding protein – uHTS hits, confirmation (AID 602473); format: functional; conditions: read-out: EC50_Mean
[3] = inhibitors of firefly luciferase expression or activity, dose response, H4 neuroglioma cells, luminescence (AID 1990); format: functional, cell-based
[4] = inhibitors of SNCA 5'UTR-driven reporter translation, confirmation, H4 neuroglioma cells, luminescence (AID 1988); format: functional, cell-based
[5] = Luminescence Cell-Based Dose Response HTS to Identify Inhibitors of 5'UTR Stem-Loop Driven Prion Protein mRNA Translation in H4 Neuroglioblastoma Cells. [Related pubchem assays: 1827 (Project Summary), 1813 (Primary HTS)]; format: functional
[6] = biological target: T2, Heat shock factor protein 1 (Mus musculus, UniProt P38532); assay: HSF1 potentiators in luciferase reporter cells, confirmation, cell-based, NIH3T3, luminescence, dose retest (AID 435004); format: functional;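 also: stress induced by proteasome inhibitor MG132 added 30 min after compound; luciferase reporter driven by HSF1 response element in NIH3T3 cells; actives raise luminescence as potentiators of the MG132 stress response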
T2 sequence (P38532 whole entry): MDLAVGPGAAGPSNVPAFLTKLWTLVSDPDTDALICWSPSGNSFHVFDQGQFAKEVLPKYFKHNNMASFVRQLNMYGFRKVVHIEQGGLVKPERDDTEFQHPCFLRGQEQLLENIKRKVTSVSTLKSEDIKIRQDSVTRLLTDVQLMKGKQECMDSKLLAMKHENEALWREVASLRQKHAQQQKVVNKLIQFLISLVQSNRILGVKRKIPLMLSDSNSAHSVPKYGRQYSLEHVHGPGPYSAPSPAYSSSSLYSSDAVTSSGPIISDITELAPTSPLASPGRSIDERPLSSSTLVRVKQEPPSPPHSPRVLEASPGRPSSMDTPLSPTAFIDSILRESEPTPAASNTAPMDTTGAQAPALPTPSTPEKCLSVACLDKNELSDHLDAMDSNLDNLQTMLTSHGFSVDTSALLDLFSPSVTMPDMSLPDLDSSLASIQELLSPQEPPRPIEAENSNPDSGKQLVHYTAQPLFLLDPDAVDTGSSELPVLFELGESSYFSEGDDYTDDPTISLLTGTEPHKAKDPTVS

[7] = biological target: T2, Heat shock factor protein 1; assay: inhibition of MG132-induced HSE-luciferase signal, confirmation, cell-based, NIH3T3, luminescence, dose retest (AID 2382); format: functional;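 also: NIH3T3 fibroblasts with HSF1-driven luciferase reporter stressed by proteasome inhibitor MG132; luminescence from HSF1-driven luciferase expression after 8 hours of MG132 stress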
Cytochrome P450 2C19 = Cytochrome P450 2C19 (Homo sapiens, UniProt P33261); assay: Cytochrome panel assay with activity outcomes. Panel member name: p450-cyp2c19 Compounds with AC50 equal or less than 10 uM are considered active; format: functional
Cytochrome P450 2C9 = Cytochrome P450 2C9 (Homo sapiens, UniProt P11712)
[8] = HEp-2 cell cytotoxicity, dose response, cytotoxicity control for RSV inhibitor project, HTS (AID 2410); format: functional; conditions: human respiratory syncytial virus
Cytochrome P450 2D6 = Cytochrome P450 2D6 (Homo sapiens, UniProt P10635);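 also: CYP2D6 member of a cytochrome P450 panel assay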
Streptococcus = assay: Group A Streptococcus viability loss, dose response, counter-screen for streptokinase expression inhibitor project, luminescence, BacTiterGlo (AID 1915); format: functional, organism-based;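 also: potency for reduction of bacterial viability or growth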
[9] = system: Streptococcus sp. 'group A'; assay: growth inhibition of control SK(-) GAS strain, dose response, counter-screen for streptokinase expression inhibitor project, luminescence, kanamycin, BacTiterGlo, confirmation (AID 1900); format: functional, organism-based

Cytochrome P450 2C19, sequence (P33261 whole entry): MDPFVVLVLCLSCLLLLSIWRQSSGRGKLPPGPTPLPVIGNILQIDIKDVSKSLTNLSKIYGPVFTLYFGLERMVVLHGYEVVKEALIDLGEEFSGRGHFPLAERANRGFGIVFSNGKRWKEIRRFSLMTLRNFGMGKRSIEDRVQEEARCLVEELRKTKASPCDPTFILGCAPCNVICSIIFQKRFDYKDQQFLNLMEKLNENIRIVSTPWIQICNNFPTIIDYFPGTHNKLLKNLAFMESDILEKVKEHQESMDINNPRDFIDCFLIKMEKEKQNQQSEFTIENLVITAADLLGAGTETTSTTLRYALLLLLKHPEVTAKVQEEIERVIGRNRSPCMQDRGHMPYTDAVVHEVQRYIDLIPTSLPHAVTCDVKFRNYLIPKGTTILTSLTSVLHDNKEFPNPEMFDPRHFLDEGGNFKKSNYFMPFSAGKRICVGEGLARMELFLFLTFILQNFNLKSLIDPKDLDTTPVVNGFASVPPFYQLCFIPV
Cytochrome P450 2C9, sequence (P11712 whole entry): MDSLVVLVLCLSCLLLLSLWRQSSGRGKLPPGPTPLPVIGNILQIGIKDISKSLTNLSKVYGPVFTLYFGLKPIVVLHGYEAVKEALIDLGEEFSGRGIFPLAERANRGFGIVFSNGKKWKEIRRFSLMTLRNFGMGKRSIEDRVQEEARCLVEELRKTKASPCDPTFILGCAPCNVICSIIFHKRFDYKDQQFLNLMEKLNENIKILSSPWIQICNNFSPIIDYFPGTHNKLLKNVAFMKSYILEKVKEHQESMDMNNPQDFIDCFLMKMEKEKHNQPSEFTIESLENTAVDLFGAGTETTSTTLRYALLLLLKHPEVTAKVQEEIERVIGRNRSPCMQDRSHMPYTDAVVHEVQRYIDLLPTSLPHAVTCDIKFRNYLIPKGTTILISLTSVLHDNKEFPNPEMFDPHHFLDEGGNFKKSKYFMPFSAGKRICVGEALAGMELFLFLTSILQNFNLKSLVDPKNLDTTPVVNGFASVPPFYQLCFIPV
Cytochrome P450 2D6, sequence (P10635 whole entry): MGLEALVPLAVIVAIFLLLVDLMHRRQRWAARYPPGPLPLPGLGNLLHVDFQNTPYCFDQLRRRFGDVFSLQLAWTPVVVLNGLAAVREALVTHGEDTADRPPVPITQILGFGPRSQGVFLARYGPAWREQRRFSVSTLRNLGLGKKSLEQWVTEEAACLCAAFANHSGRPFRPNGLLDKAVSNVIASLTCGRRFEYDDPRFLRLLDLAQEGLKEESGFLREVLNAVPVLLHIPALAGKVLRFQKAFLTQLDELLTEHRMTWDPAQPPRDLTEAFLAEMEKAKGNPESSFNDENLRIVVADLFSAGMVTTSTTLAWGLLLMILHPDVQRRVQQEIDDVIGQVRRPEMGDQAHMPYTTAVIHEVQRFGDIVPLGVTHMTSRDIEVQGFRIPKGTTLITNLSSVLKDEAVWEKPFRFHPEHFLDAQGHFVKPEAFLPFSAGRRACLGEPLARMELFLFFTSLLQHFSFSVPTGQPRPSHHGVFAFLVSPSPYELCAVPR

## Cc1c(Cl)c([N+](=O)[O-])nn1CC(=O)NC1CCCCC1
[1]
  IC50: > 47.1 µM (inactive)
[2]
  EC50: > 53 µM (inactive)

## O=C(N/N=C/C=C/c1ccccc1)c1[nH]nc2c1CCC2
[3]
  EC50: 10.6 µM (inconclusive)
[4]
  EC50: 3.42 µM (active)

## Cc1ccc(C(=O)Nc2cccnc2Oc2ccc(Cl)cc2)cc1
[3]
  EC50: 17.6 µM (active)
[5]
  EC50: > 120 µM (not active)
[4]
  EC50: > 120 µM (not active)

## Cc1ccc(S(=O)(=O)CCN2CCN(c3ccccc3)CC2)cc1
[6]
  EC50: > 260 µM (inactive)

## COc1ccc(NC(S)=Nc2ccc(C)c(S(=O)(=O)N3CCCCC3)c2)cc1
[7]
  EC50: > 195 µM (not active)

## Cc1ccc(/C=C2/NC(=O)N(Cc3ccc(Br)cc3)C2=O)o1
[6]
  EC50: > 260 µM (inactive)

## CCNc1ncc2nc(-c3cccs3)c(=O)n(Cc3cccs3)c2n1
Cytochrome P450 2C19; read-out: AC50
  AC50: 10 µM (inconclusive)
Cytochrome P450 2C9
  AC50: 39.8 µM (inconclusive)

## NC(=O)CSc1nnc([C@@H](N)Cc2c[nH]c3ccccc23)o1
[7]
  EC50: > 195 µM (not active)

## CC(C)CNP(=S)(c1ccccc1)C(C)(C)C (stereo not drawn)
[1]
  IC50: > 47.1 µM (inactive)
[2]
  EC50: > 53 µM (inactive)

## CCC1=C(OC(=O)N(CC)CC)N2C(=O)O/C(=N\CC3CC3)[C@]2(Cc2ccccc2)[C@H]2C1=CC[C@H]1C(=O)N(c3ccccc3)C(=O)[C@H]12
[8]
  CC50: 36.7 µM (active)

## C[n+]1cccc(CNC(=O)C=NO)c1
Cytochrome P450 2C19; read-out: AC50
  AC50: 10 µM (inconclusive)

## CCOC(=O)c1c(-c2ccc(OC)cc2)csc1NC(=O)CNCc1ccco1
[1]
  IC50: > 47.1 µM (inactive)
[2]
  EC50: > 53 µM (inactive)

## CCN(C(=O)c1cc2c(O)nc3ccc(C)cc3c2s1)c1ccc(F)cc1
[7]
  EC50: > 195 µM (not active)

## O=C(Nc1ccccn1)c1cc(-c2cccc(Cl)c2)nc2ccccc12
[3]
  EC50: > 120 µM (not active)
[5]
  EC50: > 120 µM (not active)
[4]
  EC50: 15.3 µM (active)

## Cc1ccc(C(=O)N2CCN(C(=O)CN3CCOCC3)C2)cc1
[1]
  IC50: > 47.1 µM (inactive)
[2]
  EC50: > 53 µM (inactive)

## O=C1N=C(N2CCOCC2)S/C1=C/c1cccs1
Cytochrome P450 2C19; read-out: AC50
  AC50: 25.1 µM (inconclusive)

## COc1ccc(CCN=C(NS(=O)(=O)c2ccc(Cl)cc2)c2ccccc2)cc1
[3]
  EC50: > 120 µM (not active)
[5]
  EC50: > 120 µM (not active)
[4]
  EC50: > 120 µM (not active)

## COc1cc(Br)cc(/C=N/N(CCO)C2=NS(=O)(=O)c3ccccc32)c1OC
[3]
  EC50: 18.5 µM (active)
[5]
  EC50: > 120 µM (not active)
[4]
  EC50: 18.1 µM (active)

## CCC(N=C(S)NC1CCCCC1)c1ccccc1 (stereo not drawn)
[7]
  EC50: > 195 µM (not active)

## Cc1ccc2c(c1)N(C(=O)CCC(=O)N1CCC3(CC1)OCCO3)CCO2
[7]
  EC50: > 195 µM (not active)

## O=C(CCSc1ccc(Br)cc1)Nc1cccnc1
[1]
  IC50: > 47.1 µM (inactive)
[2]
  EC50: > 53 µM (inactive)

## Cc1ccc(S(=O)(=O)N/N=C\c2cn(-c3ccccc3)nc2-c2ccccc2)cc1
[8]
  CC50: 13.2 µM (active)

## Clc1ccc(CSc2nnc(-c3sccc3-n3cccc3)o2)cc1
Cytochrome P450 2D6
  AC50: 11.2 µM (inconclusive)
[6]
  EC50: > 260 µM (inactive)
Cytochrome P450 2C9
  AC50: 14.1 µM (inconclusive)

## O=C(NCCc1cn[nH]c1)C1CCC(=O)N(CCc2cccc(F)c2)C1 (stereo not drawn)
[1]
  IC50: > 47.1 µM (inactive)
[2]
  EC50: > 53 µM (inactive)

## Cc1cc(C)n(-c2nc3c(c(=O)[nH]c(=O)n3C)n2CC(O)COc2ccc(Cl)cc2Cl)n1 (stereo not drawn)
[3]
  EC50: 11.6 µM (active)
[5]
  EC50: 10.3 µM (active)
[4]
  EC50: 9.24 µM (active)

## CCCCN1CN=C(S)N(c2ccc(C(=O)OCC)cc2)C1
[7]
  EC50: > 195 µM (not active)

## Cc1cccc(Nc2ncccc2C(=O)O)c1C [NIXYLIC ACID]
[7]
  EC50: > 195 µM (not active)

## CCn1c(CNC(C)=O)nnc1SCC(=O)c1ccc(Br)cc1
[6]
  EC50: > 260 µM (inactive)

## Cc1ccc(S(=O)(=O)NNC(=O)c2cnn(-c3ccc(Cl)cc3)c2C(F)(F)F)cc1
[6]
  EC50: > 260 µM (inactive)

## COc1ccc(C(=O)Nc2ccc(OCc3ccccc3)cc2)cc1[N+](=O)[O-]
[7]
  EC50: 15.2 µM (active)

## Cc1ccc(OCCOCCn2cnc3ccccc3c2=O)cc1C
[8]
  CC50: 23.3 µM (active)

## COc1ccc(C(=O)Nc2cc(C(F)(F)F)ccc2-n2cnc3ccccc32)cc1
[6]
  EC50: > 260 µM (inactive)

## COc1ccc(NC(=O)CN(C)S(=O)(=O)c2ccc(Br)s2)cc1OC
[6]
  EC50: > 260 µM (inactive)

## O=S(=O)(N1CCCCC1)N1CCN(c2ccc(F)cc2)CC1
[7]
  EC50: > 195 µM (not active)

## Cc1ccc(CN2CC(=O)N3[C@H]4c5cc(Cl)ccc5OC[C@@H]4[C@H](c4ccccc4)[C@]3(C)C2=O)cc1
[1]
  IC50: > 47.1 µM (inactive)
[2]
  EC50: > 53 µM (inactive)

## Cc1[nH]c2ccccc2c1SCc1nnc(SCc2ccccc2)n1C
[1]
  IC50: > 47.1 µM (inactive)
[2]
  EC50: > 53 µM (inactive)

## CN(CCC1CCCCO1)C(=O)CCc1nnc(CCCCc2ccccc2)o1 (stereo not drawn)
[6]
  EC50: 242 µM (active)

## Cc1noc(C)c1-c1cncnc1NCc1cccnc1
Cytochrome P450 2C19; read-out: AC50
  AC50: 15.8 µM (inconclusive)

## COc1ccccc1N1CCN(C2CCCN(C(=O)c3cc(C4CC4)on3)C2)CC1 (stereo not drawn)
[1]
  IC50: > 47.1 µM (inactive)
[2]
  EC50: > 53 µM (inactive)

## Cc1ccccc1CS(=O)(=O)CCC(=O)NCCCN1CCN(c2ccccc2F)CC1
Cytochrome P450 2C19
  AC50: inconclusive
Cytochrome P450 2C9
  AC50: 5.62 µM (inconclusive)

## O=C(NCc1nnc2c3ccccc3c(-c3ccccc3)nn12)c1ccc(Cl)cc1
[8]
  CC50: 7.36 µM (active)

## O=C(Nc1cccc2ccccc12)N1CC=CCC1
[1]
  IC50: < 0.368 µM (active)
[2]
  EC50: > 53 µM (inactive)

## O=C1CCN(C(=O)Nc2ccccc2Cl)N1
[6]
  EC50: > 260 µM (inactive)

## COc1ccc(N2CCN(C(=O)c3ccc(NS(=O)(=O)c4ccccc4)cc3)CC2)cc1
[7]
  EC50: > 195 µM (not active)

## CO[C@H]1C=CO[C@@]2(C)Oc3c(C)c(O)c4c(O)c(c5c(nc6cc(C)ccn65)c4c3C2=O)NC(=O)C(C)=CC=C[C@H](C)[C@H](O)[C@@H](C)[C@@H](O)[C@@H](C)[C@H](OC(C)=O)[C@@H]1C
Streptococcus
  EC50: 0.071 µM (active)
[9]
  EC50: < 0.06 µM (active)

## Cc1cccc(NC(S)=Nc2ccc(Cl)c(Cl)c2)c1
Streptococcus
  EC50: > 150 µM (not active)
[9]
  EC50: 11.5 µM (active)
